Reference: article PMC3914932, “Automated NMR Fragment Based Screening Identified a Novel Interface Blocker to the LARG/RhoA Complex” (PLoS ONE, 2014)

Molecular target: T1, RhoA (Homo sapiens, UniProt P61586)
T1 construct: residues 1–193
Assay: […] HSQC chemical shift perturbation titration; also STD and WaterLOGSY fragment screening
Type: binding

T1 sequence (P61586 whole entry, the tested form may be a part): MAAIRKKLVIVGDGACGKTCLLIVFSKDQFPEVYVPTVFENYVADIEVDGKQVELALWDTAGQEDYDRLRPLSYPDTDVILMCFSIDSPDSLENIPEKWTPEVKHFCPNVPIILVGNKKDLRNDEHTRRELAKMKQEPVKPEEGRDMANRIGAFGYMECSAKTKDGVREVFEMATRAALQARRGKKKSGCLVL

Kd: 110 µM
Compound: c1ccc(COC2CNC2)cc1 [R1]
